Assay results: paper PMC10682194, “Structural insights into ligand recognition and selectivity of the human hydroxycarboxylic acid receptor HCAR2” (Cell Discovery, 2023)
Like-named read-outs stand apart in the source and are kept apart here.

Tests used:
wild-type HCAR2 = target: T1, wild-type HCAR2 (Homo sapiens, UniProt Q8TDS4); assay: SPR binding affinity, wild-type receptor
T1 construct: expressed in transfected cells; host or cells: HEK293 cells (ATCC CRL-1573)
Method: Varying concentrations of agonist diluted in running buffer were injected as analytes for 100 s, as the period of association. Subsequently, the running buffer was alternatively perfused over the chip to allow the bound agonist to undergo a 50 s period of disassociation. Sensorgrams were recorded in real-time and analyzed in the Biacore X100 system for the calculation of binding affinity (KD).

[1] = tested on: HCAR2 mutants at positions 86, 91, 103, 107, 176, and 178; assay: Gi/o-cAMP assay, HCAR2 residues mutated to the allelic residues in HCAR3; assay type: cell-based, human; conditions: six HCAR2 residues mutated to HCAR3 residues
Method: (§1) The Gi/o-cAMP assay was performed as follows. […] Data were analyzed with GraphPad Prism 9.0. The experiments were performed in triplicate.

[2] = tested on: HCAR3 mutants at positions 86, 91, 103, 107, 176, and 178; assay: Gi/o-cAMP assay, reverse mutations in HCAR3; assay type: cell-based, human; conditions: reverse mutations of the six residues in HCAR3
Method: as §1

HCAR2 [3] = conditions: cited from earlier work
[4] = rat, compared to niacin; cited from earlier work
[5] = dog, compared to niacin; cited from earlier work
HCAR3 = HCAR3 (Homo sapiens, UniProt P49019); conditions: HCAR2 natural ligands on HCAR3; cited from earlier work
HCAR2 [6] = tested on: HCAR2; design: method as in PMID 19349687; conditions: HCAR2 agonist; cited from earlier work

Chain of HCAR3 (P49019 whole entry): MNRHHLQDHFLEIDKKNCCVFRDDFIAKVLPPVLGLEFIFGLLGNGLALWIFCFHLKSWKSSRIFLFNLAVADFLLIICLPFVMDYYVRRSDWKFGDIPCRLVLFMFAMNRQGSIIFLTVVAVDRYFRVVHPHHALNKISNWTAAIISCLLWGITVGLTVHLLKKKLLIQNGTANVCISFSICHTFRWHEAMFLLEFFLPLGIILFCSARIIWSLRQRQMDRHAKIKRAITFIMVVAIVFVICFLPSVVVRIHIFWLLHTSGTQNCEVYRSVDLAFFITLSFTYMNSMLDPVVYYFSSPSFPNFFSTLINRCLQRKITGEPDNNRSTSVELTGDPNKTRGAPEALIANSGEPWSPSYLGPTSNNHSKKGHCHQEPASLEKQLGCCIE
T1 sequence (Q8TDS4 whole entry): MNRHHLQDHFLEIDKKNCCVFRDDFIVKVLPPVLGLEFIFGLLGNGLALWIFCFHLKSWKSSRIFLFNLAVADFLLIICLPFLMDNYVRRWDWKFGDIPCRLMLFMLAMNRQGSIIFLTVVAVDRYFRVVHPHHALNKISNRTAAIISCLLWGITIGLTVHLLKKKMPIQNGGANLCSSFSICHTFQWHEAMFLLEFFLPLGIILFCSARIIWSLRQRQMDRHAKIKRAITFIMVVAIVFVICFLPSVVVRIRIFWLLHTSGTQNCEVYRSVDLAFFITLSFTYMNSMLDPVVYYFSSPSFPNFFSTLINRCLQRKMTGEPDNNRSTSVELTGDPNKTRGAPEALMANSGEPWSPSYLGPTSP

## Cc1cnc(C(=O)O)c[n+]1[O-] [acipimox]
wild-type HCAR2
  Kd: 429 nM
[1]
  effect of mutations on agonist activity in HCAR2: markedly reduced
[2]
  agonistic activity compared to wild-type HCAR3: increased
HCAR2 [3]; agonist of HCAR2
  EC50: 2600 to 6000 nM

## CC(C)(Cc1nc(-c2ccc(O)cn2)no1)C(=O)NC1=C(C(=O)O)CCCC1 [MK-6892]
[4]
  flushing effect: significantly relieved
[5]
  flushing effect: significantly relieved

## CCCC(=O)O [butyrate]
HCAR3
  activity toward HCAR3: no activity

## NC(=O)c1cccnc1 [nicotinamide]
HCAR2 [3]; carboxyl group of niacin replaced with an amide group
  activity toward HCAR2: no longer active

## CCCCCC(O)CC(=O)O (stereo not drawn) [3-hydroxyoctanoic acid]
HCAR2 [3]; natural ligand of HCAR3 tested on HCAR2
  activation of HCAR2: not activated

## C1Cc2[nH]nc(-c3nn[nH]n3)c2C1 [MK-0354]
HCAR2 [6]
  β-arrestin activation: weak

## CC(O)CC(=O)O (stereo not drawn) [β-OHB, β-hydroxybutyrate]
HCAR2 [3]; endogenous ligands
  potency for HCAR2 relative to butyrate: higher potency
HCAR3
  activity toward HCAR3: no activity
